Where two headings read alike, the source gives them in different places.
Assays:
in vivo = test: in vivo
Method: Toxicological evaluations involving measurement of body weights and observations of clinical signs characteristic of retinoid toxicity were accomplished as previously described (Lin et al., 1996).
RTMBE and two of its analogues, together with RME and RPE, were selected for estimation of their toxicities to mice when administered during 28-29 days by gavage in corn oil (Table 8). Mice were evaluated for changes in body weight and for signs of clinical retinoid toxicity (hypervitaminosis A) including alopecia, scaly skin, and limping. In the first experiment, these retinyl ethers were given at equimicromolar doses at three dose levels. The retinyl benzyl ethers (RTMBE, 3c, and 3e) were then tested at higher doses in a second experiment.

[1] = system: MNU-induced mammary cancer; settings: for Adenocarcinomas, % of Control Group A / Adenocarcinomas, Avg. No. Per Rat / reduction of average number of tumors per rat: 160 days
Method: Briefly, diets were prepared by mixing each retinoid with Wayne meal or Teklad (4%) mash diet. For each kg of diet, the retinoid was dissolved in 12 g ethanol, 19 g trioctanoin, 0.05 mL Tenox 20, and 0.05 mL d,1-alpha tocopherol prior to incorporation into the feed using a Patterson-Kelly blender. Retinoid diet mixtures were stored at 4° C. Portions of each retinoid-diet mixture were analyzed for the added retinoid to ensure homogeneity. Female Sprague-Dawley rats received an i.v. injection of MNU (45 mg/kg body weight) at 50 days of age. Diet supplementation with retinoids was initiated three days after MNU. A group of rats receiving retinyl acetate (1 mmol/kg of diet) served as the positive control. The animals were palpated for mammary tumors 2×/week. At termination of the study, mammary tumors were processed for histological classification. Also, five rats/group had complete necropsies performed. The tissues were examined histologically for pathological lesions as additional toxicological evaluation. Extracts of the liver and mammary gland (5 rats/group) were analyzed by HPLC for retinyl palmitate and/or for the dosed retinoid. Statistical analyses of cancer incidence and latency were determined using logrank analysis, while differences in cancer multiplicity were determined employing the Armitage test.
In this assay, described previously (Grubbs et al., 1995; Shealy el al., 1997), a retinoid dissolved in a solution (vehicle) consisting of ethanol and trioctanoin plus small amounts of Tenox 20 and α-tocopherol was mixed with feed, and the mixture was fed to rats after intravenous injection of MNU.
^a Female Sprague-Dawley rats (10/group) received one i.v. injection of
MNU (45 mg/kg of body weight) at 50 days of age. Diet supplementation with
retinoids was initiated at 52 days of age and was continued until the
study was terminated 160 days after administration of MNU.
^b Treatment with retinoids is stated in millimoles of retinoid per
kilogram of diet (Wayne meal).

[2] = biological target: T1, cellular retinol-binding protein (CRBP) (Rattus norvegicus, UniProt P02696); test: Binding to cellular retinol-binding protein (CRBP): inhibition of [3H]retinol binding, sucrose density-gradient sedimentation
T1 construct: portions of rat testes cytosol (1 mg protein) were incubated; from tissue; host or cells: rat testes cytosol
T1 sequence (P02696 1-135): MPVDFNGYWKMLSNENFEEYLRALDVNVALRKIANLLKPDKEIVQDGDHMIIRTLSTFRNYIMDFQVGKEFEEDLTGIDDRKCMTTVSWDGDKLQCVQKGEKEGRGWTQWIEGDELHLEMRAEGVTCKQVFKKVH
Method: Binding affinities of the retinyl ethers for CRBP were determined by sucrose, density-gradient, sedimentation analysis as described before (Sani et al., 1980). Briefly, portions of rat testes cytosol (1 mg protein) were incubated with [^3 H]retinol (50 pmol) in the presence or absence of a 150-fold molar excess of unlabeled retinol or the test retinoids. The preparations after dialysis were analyzed by 5-20% sucrose density gradient sedimentation. For measuring the competitive binding of the unlabeled retinoids, inhibition of [^3 H]retinol binding to CRBP by unlabeled retinol is regarded as 100%. The mean and standard deviation calculated from the relative inhibitions obtained from multiple determinations were used as the relative binding affinities of the various retinyl ethers.
The group of retinyl benzyl ethers has now been evaluated for binding to CRBP. Binding to CRBP, as defined for Table I, at approximately 60% or higher was rated as strong; at 40-60%, as moderate; at 20-40%, as low.
^a Per cent inhibition of binding of tritiated retinol to CRBP by a
150-fold molar excess of the unlabelled test retinoid (Sani et al., 1980,

[3] = system: MNU-induced mammary cancer; test: 180-day study of RTMBE for suppression of MNU-induced mammary carcinogenesis (Expt. 3); format: in vivo, rat (female Sprague-Dawley)
Method: Retinoid diet mixtures were stored at 4° C. […] The animals were palpated for mammary tumors 2×/week. […] Also, five rats/group had complete necropsies performed.
The 2,5-dimethoxybenzyl (3b) and 4-methoxybenzyl (3e) ethers were tested in the same way in a 90-day study. […] The 2,5-dimethybenzyl (3c) and the 2,3-dimethoxybenzyl (3h) ethers, together with RTMBE for comparison, were likewise assayed according to the same methodology. Prior to the beginning of this study, specimens of the retinoid-diet mixtures were placed under the conditions that were employed during the storage and feeding of RTMBE, 3c, and 3h. The specimens were extracted with butanol, and the extracts were analyzed by HPLC. […] Testing of 3c and 3h was discontinued, but the RTMBE study was continued until the duration of the study was 180 days (Table 6). The results were similar to those of Experiment 1 (Table 3). The averages of the number of tumors per rat were reduced by 32-35%; in addition, the averages of the tumor weights per rat was 56-70% lower than the average tumor burden of the control group.
^a Each group of female Sprague-Dawley rats (10/group) received one
until Day 180 after injection of MNU.
and was continued until the study was terminated at 180 days after MNU.

COc1cc(COC/C=C(C)/C=C/C=C(C)/C=C/C2=C(C)CCCC2(C)C)cc(OC)c1OC [Compound 2, Retinyl 3,4,5-Trimethoxybenzyl Ether]
NOAEL (in vivo; mouse, in vivo, po): 249 mg/kg/day
Toxic Dose (in vivo; oral gavage in corn oil, 28-29 days): > 249 mg/kg day
clinical toxicity (alopecia, scaly skin, limping) (in vivo; oral gavage, up to highest dose (RTMBE and RMoBE-4: Expt. 2)): No evidence of clinical toxicity
Adenocarcinomas, % of Control Group A ([1]; 0.5 mmol/kg diet): 100%
Adenocarcinomas, Avg. No. Per Rat ([1]; 0.5 mmol/kg diet): 6.5
Adenocarcinomas, % of Control Group A ([1]; 1 mmol/kg diet): 55%
Adenocarcinomas, Avg. No. Per Rat ([1]; 1 mmol/kg diet): 3.6
reduction of average number of tumors per rat ([1]; 1 mmol/kg feed): 46%
Adenocarcinomas, % of Control Group A ([1]; 2 mmol/kg diet): 54%
Adenocarcinomas, Avg. No. Per Rat ([1]; 2 mmol/kg diet): 3.5
reduction of average number of tumors per rat ([1]; 2 mmol/kg feed): 45%
prevention / suppression of mammary cancer, general statement ([1]; animal model / in vivo initial study): suppress mammary cancer in vivo
Binding to CRBP, rating ([2]; 150-fold molar excess): strong or moderate binding
binding to CRBP, in words ([2]; 150-fold molar excess): bind to CRBP
Percent Inhibition of [3H] Retinol Binding (CRBP Assay) ([2]; 150-fold molar excess of unlabelled test retinoid, rat testes cytosol): 66 ± 12%
Adenocarcinomas, % of Control Gp. ([3]; 0.5 mmol/kg diet, 180 days): 65%
Adenocarcinomas, Avg. No. Per Rat ([3]; 0.5 mmol/kg diet, 180 days): 4.07
Final Body Wt. ([3]; 0.5 mmol/kg diet, 180 days): 259 g
Tumor Wt. Per Rat ([3]; 0.5 mmol/kg diet, 180 days): 7.0 g
Adenocarcinomas, % of Control Gp. ([3]; 1 mmol/kg diet, 180 days): 67%
Adenocarcinomas, Avg. No. Per Rat ([3]; 1 mmol/kg diet, 180 days): 4.20
Final Body Wt. ([3]; 1 mmol/kg diet, 180 days): 252 g
Tumor Wt. Per Rat ([3]; 1 mmol/kg diet, 180 days): 7.57 g
Adenocarcinomas, % of Control Gp. ([3]; 2 mmol/kg diet, 180 days): 68%
Adenocarcinomas, Avg. No. Per Rat ([3]; 2 mmol/kg diet, 180 days): 4.27
Final Body Wt. ([3]; 2 mmol/kg diet, 180 days): 246 g
Tumor Wt. Per Rat ([3]; 2 mmol/kg diet, 180 days): 5.14 g
average tumor weight per rat lower than control group ([3]; 180 days, 0.5-2 mmol/kg diet): 56-70%
reduction of average number of tumors per rat ([3]; 180 days, 0.5-2 mmol/kg diet): 32-35%
suppression of MNU-induced mammary cancer ([3]; three long-term experiments of 160-180 days): suppressed MNU-induced mammary cancer

— patent publication US6281250A, “Retinyl ethers, derivatives and analogues and inhibition of breast carcinogenesis” (Southern Research Institute, priority 1999, dated 2001)
